Measured values taken from patent publication US6491894B1, “NGR receptor and methods of identifying tumor homing molecules that home to angiogenic vasculature using same” (The Burnham Institute, priority 1998, dated 2002).
Where no end group is shown, it is not given here.

How the values were obtained:
[1] = target: T1, CD13 (Gallus gallus, UniProt O57579); experiment: bFGF-induced angiogenesis in chicken chorioallantoic membrane (CAM); assay type: in vivo; details: topical, 3 days
T1 construct: CD13 is expressed in CAM angiogenic vasculature; from tissue; host or cells: chorioallantoic membrane of 10-day chicken embryos
T1 sequence (O57579 1-972): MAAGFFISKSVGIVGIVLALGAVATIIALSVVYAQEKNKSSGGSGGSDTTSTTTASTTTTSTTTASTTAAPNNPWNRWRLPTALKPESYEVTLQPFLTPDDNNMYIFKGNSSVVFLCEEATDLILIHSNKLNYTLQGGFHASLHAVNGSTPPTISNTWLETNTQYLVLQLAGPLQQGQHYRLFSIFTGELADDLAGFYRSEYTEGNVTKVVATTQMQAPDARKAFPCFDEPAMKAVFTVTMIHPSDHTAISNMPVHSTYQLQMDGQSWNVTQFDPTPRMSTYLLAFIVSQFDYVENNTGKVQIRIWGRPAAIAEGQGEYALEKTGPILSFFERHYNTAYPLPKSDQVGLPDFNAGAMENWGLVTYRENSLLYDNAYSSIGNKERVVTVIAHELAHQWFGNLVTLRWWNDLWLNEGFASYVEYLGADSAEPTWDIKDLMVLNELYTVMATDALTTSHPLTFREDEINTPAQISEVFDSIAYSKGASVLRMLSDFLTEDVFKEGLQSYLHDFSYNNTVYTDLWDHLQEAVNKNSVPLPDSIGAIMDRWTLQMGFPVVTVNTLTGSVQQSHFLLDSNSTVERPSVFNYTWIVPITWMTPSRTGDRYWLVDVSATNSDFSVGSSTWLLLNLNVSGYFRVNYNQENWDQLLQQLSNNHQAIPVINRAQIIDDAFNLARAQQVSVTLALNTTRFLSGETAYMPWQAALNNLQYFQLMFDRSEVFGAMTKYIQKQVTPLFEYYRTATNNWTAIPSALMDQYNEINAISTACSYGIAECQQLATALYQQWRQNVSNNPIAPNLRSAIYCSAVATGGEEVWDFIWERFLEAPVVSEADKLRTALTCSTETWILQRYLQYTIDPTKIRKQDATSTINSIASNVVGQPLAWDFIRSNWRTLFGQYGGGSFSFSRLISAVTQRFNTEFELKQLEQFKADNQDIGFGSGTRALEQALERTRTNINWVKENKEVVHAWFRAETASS
Description: Various treatments were applied topically, and, after 3 days, the filters and surrounding CAMs were resected and fixed in formalin.
Each bar represents the mean number of vessels and standard errors from 8 CAMs on each group.

[2] = target: CD13/aminopeptidase N (Homo sapiens, UniProt P15144); details: cited from earlier work
[3] = high doses; cited from earlier work
[4] = target: T2, CD13/APN (Homo sapiens, UniProt P15144); experiment: Aminopeptidase enzymatic activity of immuno-isolated CD13 (Ala-pNA or Leu-pNA); assay type: biochemical; details: Kaposi's sarcoma tumor cell extracts
T2 construct: Experiments were performed using HL-60 cell extracts because they are known to express CD13/APN; endogenous in cells; host or cells: HL-60 cells (extract)
Experimental: Given that the NGR sequence closely resembles a reverse RGD sequence, NGR-containing phage were tested to determine whether they would bind to CD13/aminopeptidase (CD13/APN). Kaposi's sarcoma tumor cell octylglucoside extracts were used as a source of CD13/APN. Aminopeptidase enzymatic activity was measured in these extracts utilizing Ala-pNA or Leu-pNA as substrates by monitoring the absorbance of the samples at 405 nm (Look et al., supra (1989); Taylor, supra (1993); Amoscato et al., supra (1989), each of which is incorporated herein by reference).
The CD13 antibody alone had no aminopeptidase activity.

[5] = target: T3, CD13 (Homo sapiens, UniProt P15144); experiment: Phage binding assays with CD13/APN-transfected cells; assay type: cell-based; design: expressed in transfected cells; host or cells: Molt-4 human T cell leukemia; details: 250 and 500 μg/ml
Experimental: The CNGRC phage binds specifically to cells transfected with CD13. […] Briefly, mock transfected Molt-4 cells (“Molt-4/mock”) and cells transfected with CD13 (“Molt-4/CD13”) were incubated with CNGRC (SEQ ID NO:8) phage or with control Fd phage lacking an insert (2×10^9 transducing units (TU) per sample). Synthetic peptides, CNGRC (SEQ ID NO:8) or the negative control CARAC (SEQ ID NO:221), were pre-incubated with the cells at 250 and 500 μg/ml. After extensive washing, bound phage were quantitated by infection of bacteria as described above.

[6] = target: T3, CD13; experiment: Phage binding to immobilized CD13; design: Kaposi's sarcoma tumor cell octylglucoside extracts were used as a source of CD13/APN; endogenous in cells; host or cells: Kaposi's sarcoma tumor cells (octylglucoside extract); details: 200 μg/well
Experimental: In FIG. 4B, NGR-containing phage were assayed for the ability to bind CD13. […] Various phage were added to the wells at 2×10^9 transducing units (TU) per well. […] The data were expressed as means and standard errors from triplicate wells.
The data shown were expressed as means and standard errors from triplicate wells.

[7] = test system: MDA-MB-435 derived tumors; experiment: In vivo targeting of phage to breast carcinoma xenografts (phage recovery); design: species or system mouse
Experimental: When the tumors attained a diameter of about 1 cm, phage expressing a specific RGD-containing peptide were administered to the tumor bearing mouse. Similar results to those discussed below also were obtained with nude mice bearing tumors formed by implantation of human melanoma C8161 cells or by implantation of mouse B16 melanoma cells.
1×10^9 phage expressing the RGD-containing peptide, RGD-4C ([…]; SEQ ID NO:1; see, Koivunen et al., supra, 1995) or control (insertless) phage were injected intravenously (iv) into the mice and allowed to circulate for 4 min. The mice then were snap frozen or perfused through the heart while under anesthesia, and various organs, including tumor, brain and kidney, were removed and the phage present in the organs was quantitated (see U.S. Pat. No. 5,622,699; Pasqualini and Ruoslahti, supra, 1996).
Phage displaying tumor homing peptides were recovered from breast carcinoma xenografts. […] The mean number of phage recovered from the tumor or control tissue (brain) and the standard error of the mean (SEM) from triplicate platings are shown in FIG. 1.
An insertless phage with a different selective marker (ampicillin instead of tetracycline) was co-injected with the NGR phage at the same input to assess specificity within the same tumor-bearing animal. The ratios were calculated using the number of co-injected control ampicillin-resistant phage recovered from the same tissues. The phage were quantitated from triplicate platings on tetracycline (the homing phage) or ampicillin (control phage) selective plates. Various additional control phage were injected separately into tumor-bearing mice. These controls included: fd-tet phage without insert; unselected phage library mixtures; phage selected and shown to home to other normal vascular beds; and phage displaying peptides that were unrelated to NGR. The RGD-4C ([…]; SEQ ID NO:1) phage served as a positive control.

[8] = target: T2, CD13/APN; experiment: Affinity chromatography of cell extracts on immobilized peptide; assay type: binding; details: Molt-4/CD13, MDA-MB-435/CD13 or HL-60 cell extracts
Experimental: To further characterize the interaction of CD13/APN with the NGR peptide, affinity chromatography on the CNGRC peptide was performed. The column was prepared by coupling the CNGRC peptide to SEPHAROSE (Pharmacia; Piscataway N.J.). Elution was effected with soluble CNGRC peptide. […] Extracts of Molt-4 and MDA-MB-435 cells transfected with CD13/APN were also characterized by using affinity chromatography, with extracts of the mock transfected counterparts used as negative controls.
The fractions were also analyzed for CD13 enzymatic activity using AlapNA as the substrate.

[9] = Acute toxicity in mice bearing extremely large tumors; details: mouse, in vivo
[10] = test system: MDA-MB-435 breast carcinoma; experiment: Tumor therapy of mice bearing MDA-MB-435 breast carcinoma; assay type: in vivo, mouse
Experimental: Female 2-month old Balb c nu/nu mice (Harlan Sprague Dawley; San Diego Calif.) were used for these studies and were cared for according to the Burnham Institute animal facility guidelines. […] Tumors were allowed to grow to a size of about 1 cm^3 (about 5% of the mouse's body weight) before starting the treatment experiments, except for the toxicity experiments as discussed below.
Weekly doxorubicin/peptide conjugate or control treatments (5 μg/mouse/week of doxorubicin-equivalent) were administered intravenously. In some experiments, as indicated, a dose of 30 μg/mouse was administered every 3 weeks. […] As an additional control, in some experiments the tumor homing peptide was mixed with doxorubicin, without linking, and the mixture was administered to tumor bearing mice.
Mice were anesthetized with a tribromoethanol-based anesthetic mixture (AVERTIN; Papaioannou and Fox, Lab. Anim. 43:189-192 (1993)) before each treatment. Anesthetization facilitated the tail vein injections (final volume, 200 μl) and allowed precise serial three dimensional tumor size measurements. Tumor volume calculations were based on the equation for the volume of an ovaloid: V=4/3(nabc), where a, b, and c are ½ of the measured diameters in each of the three dimensions.
Briefly, mice with size-matched tumors (˜1000 mm^3) were randomized into four treatment groups (six animals per group): vehicle only, free doxorubicin, doxorubicin-control peptide, and doxorubicin-CNGRC (SEQ ID NO:8). Mice were treated at 5 μg/mouse/week of doxorubicin-equivalent, and the difference in tumor volumes between day 1 and day 28 determined (FIG. 11A).

[11] = test system: Hodgkin's lymphoma; experiment: Treatment of mice bearing Hodgkin's lymphoma; assay type: in vivo; details: two doses, 40 μg/mouse doxorubicin equivalent, tumors ~5000 mm^3
Experimental: Mice bearing large (˜5000 mm^3) Hodgkin's lymphoma (eight animals per group) were randomized to receive two doses of free doxorubicin plus unconjugated CNGRC peptide or doxorubicin-CNGRC (SEQ ID NO:8) conjugate at 40 μg/mouse of doxorubicin equivalent.

[12] = 5 μg/mouse/week doxorubicin-equivalent iv

Chain of CD13/aminopeptidase N (P15144 whole entry): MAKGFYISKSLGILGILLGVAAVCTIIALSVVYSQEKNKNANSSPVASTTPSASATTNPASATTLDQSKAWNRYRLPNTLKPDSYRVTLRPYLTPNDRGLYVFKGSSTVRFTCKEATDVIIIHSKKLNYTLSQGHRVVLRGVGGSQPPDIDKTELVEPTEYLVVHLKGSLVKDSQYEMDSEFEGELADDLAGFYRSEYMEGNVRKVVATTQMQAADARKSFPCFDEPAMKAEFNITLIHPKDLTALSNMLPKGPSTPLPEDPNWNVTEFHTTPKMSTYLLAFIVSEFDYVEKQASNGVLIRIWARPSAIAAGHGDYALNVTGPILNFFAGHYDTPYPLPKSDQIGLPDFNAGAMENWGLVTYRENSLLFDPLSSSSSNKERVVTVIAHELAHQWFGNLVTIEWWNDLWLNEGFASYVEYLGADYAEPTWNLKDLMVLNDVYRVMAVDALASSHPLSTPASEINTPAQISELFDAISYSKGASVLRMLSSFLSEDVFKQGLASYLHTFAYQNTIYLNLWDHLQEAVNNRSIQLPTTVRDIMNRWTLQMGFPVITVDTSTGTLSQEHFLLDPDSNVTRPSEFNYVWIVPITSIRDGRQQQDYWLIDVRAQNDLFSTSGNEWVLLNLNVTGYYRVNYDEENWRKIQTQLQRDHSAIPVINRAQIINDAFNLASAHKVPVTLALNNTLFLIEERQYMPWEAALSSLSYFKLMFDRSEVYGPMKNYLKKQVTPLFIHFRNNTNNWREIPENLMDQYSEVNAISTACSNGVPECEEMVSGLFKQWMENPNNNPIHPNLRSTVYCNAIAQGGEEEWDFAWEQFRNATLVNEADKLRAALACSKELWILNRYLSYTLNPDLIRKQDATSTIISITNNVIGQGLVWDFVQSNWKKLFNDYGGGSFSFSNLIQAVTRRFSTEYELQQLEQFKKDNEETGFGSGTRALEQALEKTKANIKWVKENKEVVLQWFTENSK
T3 sequence (P15144 whole entry): as above
T2 sequence (P15144 whole entry): as above

For CC(C)C[C@H](NC(=O)[C@@H](O)[C@H](N)Cc1ccccc1)C(=O)O [bestatin], the “effect on bFGF-induced angiogenesis in CAM” value [1] is given as “suppress bFGF-induced angiogenesis”, the “block of cell-surface CD13/aminopeptidase N enzymatic activity” value [2] is given as “potently blocked” and the effect on metastasis [3] is given as “marked suppression of experimental and spontaneous metastasis”.

For c1cnc2c(c1)ccc1cccnc12 [o-phenanthroline], the “inhibition of aminopeptidase activity captured by CD13 antibody” value [4] is listed as “inhibited the activity” and the “block of cell-surface CD13/aminopeptidase N enzymatic activity” value [2] is listed as “potently blocked”.

For CNGRC, the “inhibition of CNGRC phage binding to CD13 transfected cells by synthetic peptide” value [5] was “blocked”, the “inhibition of NGR-phage binding to CD13 by peptide” value [6] was “Inhibition” and the “inhibition of accumulation of the two other NGR-displaying phage by co-injected soluble peptide” value ([7]; breast carcinoma xenografts) was “also inhibited the accumulation”. For the same compound, the “inhibition of tumor homing of CNGRCVSGCAGRC (NGR) phage by co-injected soluble peptide” value ([7]; breast carcinoma xenografts) was “inhibited the accumulation”, the “inhibition of tumor homing of RGD-4C phage by co-injected soluble peptide” value ([7]; increasing amounts of peptide) was “not inhibited” and the “elution of CD13/APN from the CNGRC column by soluble peptide” value [8] was “yielded fractions containing functional CD13/APN”.

In the case of “doxorubicin/CNGRC (not fully specified (bridges); cysteine pairing not given here; also: doxorubicin conjugate)”, the “toxicity compared with free doxorubicin” value [9] was “less toxic than free doxorubicin”, the survival [10, 12] was “A marked effect on survival” and the “tumor size versus doxorubicin control” value [10, 12] was “significantly smaller”. The “survival versus doxorubicin alone” value ([10]; 5 μg/mouse/week or single dose 200 μg/mouse doxorubicin equivalent) was “lived longer”, the cures ([10]; mouse, in vivo) was “Cures were also observed” and the “effect on tumor growth” value ([10]; relative to vehicle alone) was “almost completely suppressed tumor growth”. The “survival versus unconjugated peptide doxorubicin mixture” value [11] was “lived longer”.
